Reference: publication PMC8490327 (Environment international, 2021)

Key:
[1] = cited from earlier work; for Median serum concentration: general U.S. population, NHANES 2003-2004, ref Nelson et al. 2010
[2] = tested on: human PPARα; settings: ref Behr et al. 2020b, cited from earlier work; for PPARα activation compared to the positive control GW7647: even at concentrations 250 times greater than GW7647; for In vitro activation of human PPARα: reporter gene assays
[3] = Absolute quantitation of circulating PFAS; format: in vivo, mouse; settings: for Absolute Plasma PFAS Levels: Fold Change PFAS Female vs. PFAS Male / Absolute Plasma PFAS Levels: PFAS Female Average Concentration / Absolute Plasma PFAS Levels: PFAS male Average Concentration / Absolute Plasma PFAS Levels: Overall Average Concentration: 12 weeks; for concentration at 12 weeks: C57BL/6J, mouse, plasma, oral; for Absolute Plasma PFAS Levels: PFAS Female Average Concentration: exposed females; for Absolute Plasma PFAS Levels: PFAS Female Average Concentration / Absolute Plasma PFAS Levels: PFAS male Average Concentration: 2 mg/L each in drinking water, n=3; for Absolute Plasma PFAS Levels: PFAS male Average Concentration: exposed males; for Absolute Plasma PFAS Levels: Overall Average Concentration: exposed mice of both sexes
[4] = Relative plasma PFAS levels; format: in vivo, mouse; settings: for Relative Plasma PFAS Levels: Fold Change PFAS Female vs. PFAS Male / Relative Plasma PFAS Levels: Fold Change PFAS vs. Vehicle: 12 weeks of the 5-PFAS mixture, 2 mg/L each in drinking water; for Plasma level, fold increase in PFAS-exposed females compared to vehicle / Plasma level, fold increase in PFAS-exposed males compared to vehicle: 12 weeks
[5] = ref Olsen et al. 2007; cited from earlier work
[6] = Relative hepatic PFAS levels; format: in vivo, mouse; settings: liver; for Relative Hepatic PFAS Levels: Fold Change PFAS Female vs. PFAS Male / Relative Hepatic PFAS Levels: Fold Change PFAS vs. Vehicle: 12 weeks of the 5-PFAS mixture, 2 mg/L each in drinking water; for Hepatic level, fold increase in PFAS-exposed females compared to vehicle / Hepatic level, fold increase in PFAS-exposed males compared to vehicle: 12 weeks
[7] = tested on: humans; settings: cited from earlier work

Structure (SMILES)	PPARα activation compared to the positive control GW7647 [2]	In vitro activation of human PPARα [2]	Absolute Plasma PFAS Levels: Fold Change PFAS Female vs. PFAS Male [3]	concentration at 12 weeks ([3]; both)	Relative Plasma PFAS Levels: Fold Change PFAS Female vs. PFAS Male [4]	Plasma level, fold increase in PFAS-exposed females compared to vehicle [4]	Plasma level, fold increase in PFAS-exposed males compared to vehicle [4]	Biological half-life in human serum [5]	Relative Hepatic PFAS Levels: Fold Change PFAS Female vs. PFAS Male [6]	Relative Hepatic PFAS Levels: Fold Change PFAS vs. Vehicle [6]	Hepatic level, fold increase in PFAS-exposed females compared to vehicle [6]	Hepatic level, fold increase in PFAS-exposed males compared to vehicle [6]	Absolute Plasma PFAS Levels: PFAS Female Average Concentration [3]	Absolute Plasma PFAS Levels: PFAS male Average Concentration [3]	Absolute Plasma PFAS Levels: Overall Average Concentration [3]	Relative Plasma PFAS Levels: Fold Change PFAS vs. Vehicle [4]	Median serum concentration [1]	further results
N.O=C(O)C(F)(OC(F)(F)C(F)(F)C(F)(F)F)C(F)(F)F (stereo not shown) [GenX]	60-90%	capable of PPARα activation	1.8 fold	140 ng/mL	–	–	–	–	–	–	–	–	–	–	–	–	–	Serum level in a population exposed to PFAS-contaminated water ([1]; not detected above limit of detection, ref Kotlarz et al. 2020): < 2 ng/mL; concentration at 12 weeks [3]: ~100 ng/g
O=S(=O)(O)C(F)(F)C(F)(F)C(F)(F)C(F)(F)C(F)(F)C(F)(F)F [PFHxS]	–	capable of PPARα activation	0.9 fold	23800 ng/mL	0.96 fold	6491 fold	5414.2 fold	~8.5 years	1.30 fold	705.46 fold	2035.7 fold	387.1 fold	–	–	–	–	–	–
O=C(O)C(F)(F)C(F)(F)C(F)(F)C(F)(F)C(F)(F)C(F)(F)C(F)(F)C(F)(F)F [PFNA, perfluorononanoic acid]	–	–	0.8 fold	–	–	–	–	–	–	–	–	–	33.7 ± 7.6 µg/mL	40.9 ± 10.6 µg/mL	37.3 ± 9.1 µg/mL	–	–	–
O=C(O)C(F)(F)C(F)(F)C(F)(F)C(F)(F)C(F)(F)C(F)(F)C(F)(F)F [PFOA, perfluorooctanoic acid]	60-90%	capable of PPARα activation	3.2 fold	15400 ng/mL	1.96 fold	10883.6 fold	6936.8 fold	around 4 years	2.43 fold	1513.94 fold	4693.4 fold	571.9 fold	23.4 ± 9.0 µg/mL	7.3 ± 1.8 µg/mL	–	10270.75 fold	3.9 ng/mL	Average serum concentration ([1]; populations occupationally exposed to PFOA, ref Sakr et al. 2007): 1.13 µg/mL; Predicted increase in total cholesterol from lowest to highest decile of PFOA ([7]; exposed communities, ref Steenland et al. 2009): 11 to 12 mg/dL; Increase in total cholesterol associated with 1 ppm increase in serum PFOA ([7]; occupationally exposed populations, ref Sakr et al. 2007): 1.06 mg/dL
O=S(=O)(O)C(F)(F)C(F)(F)C(F)(F)C(F)(F)C(F)(F)C(F)(F)C(F)(F)C(F)(F)F [PFOS, Perfluorooctane sulfonate]	–	capable of PPARα activation	0.6 fold	–	0.77 fold	545.2 fold	708.9 fold	~5 years	0.92 fold	188.03 fold	386.3 fold	127.2 fold	13.8 ± 2.3 µg/mL	22.5 ± 4.1 µg/mL	18.1 ± 5.6 µg/mL	627.07 fold	21 ng/mL	–
